What was measured:
[1] = test system: advanced-stage solid tumors; test: Best overall response per RECIST 1.1; assay type: in vivo, human
Protocol: Adverse events were coded using the standard MedDRA groupings and graded according to NCI-CTCAE version 5.0. Clinical chemistry, urinalysis, and coagulation tests were performed predose on days 1, 8, 15, 22, and weekly thereafter. Tumor imaging occurred every 8 weeks until week 33, and then every 16 weeks thereafter. Adverse events and DLTs were summarized descriptively by dose cohort. Pharmacokinetic parameters of GSK3368715 and its metabolites (GSK3963583 and GSK3983164) were estimated in the PK/PD population (all participants for whom a PK sample was obtained) using a noncompartmental analysis model (WinNonlin version 8.1) and summarized descriptively. Best overall response as per RECIST 1.1 was summarized descriptively by dose cohort. Levels of tumor cell and plasma pharmacodynamic biomarkers were also summarized descriptively.

[2] = in vivo; cited from earlier work
global ADMA levels = test system: global ADMA levels; design: method as in PMID 31257072; details: preclinical cancer models ref [6]; cited from earlier work
[3] = test system: ADMA-R225-hnRNP-A1 in tumor biopsies; test: Tumor biopsy ADMA-R225-hnRNP-A1 by LC-MS (fresh frozen); assay type: in vivo, human; details: 100-mg dose level, day 15
Protocol: (§1) Tumor cell and plasma target engagement PD biomarkers were assessed in the dose-escalation cohort on days 1, 8, 15, and 22. In the PK/PD cohort, urine for PK and metabolite profiling was collected postdose on day 1 and through 48 h postdose on day 2, and for 24 h postdose on day 15. Participants underwent an on-treatment tumor biopsy on day 15. Asymmetric arginine 225 (R225) methylation of heterogeneous nuclear ribonucleoprotein A1 (hnRNP-A1) was identified as a target engagement PD of type I PRMT inhibition; treatment with GSK3368715 results in the reduction of asymmetric dimethylarginine 225 (ADMA-R225) on hnRNP-A1 protein in cancer cell lines and peripheral blood mononuclear cells (PBMCs). Noto et al. describe in detail the identification of hnRNP-A1 as a pharmacodynamic biomarker of type I PRMT inhibition, and the development of novel methodologies to accurately and precisely quantitate changes in the levels of ADMA on hnRNP-A1 in both blood and tumor compartments. Levels of ADMA-R225-hnRNP-A1 were measured in fresh frozen and formalin-fixed paired biopsies by liquid chromatography-mass spectrometry (LC-MS) and immunohistochemistry (IHC).

[4] = test system: ADMA-R225-hnRNP-A1 in PBMCs; test: ADMA-R225-hnRNP-A1 in PBMCs (LC-MS), target engagement; assay type: in vivo, human
Protocol: as §1
To measure the ADMA-R225-hnRNP-A1 in the PBMCs, blood was collected using the standard technique for BD Vacutainer® Evacuated Blood Collection Tubes. The PBMC aspirate prepared was used for the ADMA analyses as previously described by the LC-MS method.

[5] = test system: acute myeloid leukemia (AML) cell lines; design: method as in PMID 31257072; details: acute myeloid leukemia (AML) cell lines ref [6]; cited from earlier work
[6] = test system: circulating free ADMA, cfMMA, cfSDMA; test: Plasma circulating free ADMA, MMA and SDMA; assay type: in vivo, human; details: day 15
Protocol: as §1

protein SDMA = test: Protein SDMA in formalin-fixed paired tumor biopsies; assay type: in vivo, human
[7] = test system: ADMA-R225-hnRNP-A1 in tumor biopsies; test: Tumor biopsy ADMA-R225-hnRNP-A1 by IHC (formalin-fixed); assay type: in vivo, human; details: 100-mg dose level, day 15; in 4/8 patients
Protocol: as §1

With `CCOCC1(COCC)CCC(c2[nH]ncc2CN(C)CCNC)CC1` [GSK3368715] the “Best response: Complete response” value ([1]; 50 mg (n = 3)) was 0 n (%), the “Best response: Missing” value ([1]; 50 mg (n = 3)) was 0 n (%) and the “Best response: Not evaluable” value ([1]; 50 mg (n = 3)) was 1 (33) n (%). The “Best response: Partial response” value ([1]; 50 mg (n = 3)) was 0 n (%), the “Best response: Progressive disease” value ([1]; 50 mg (n = 3)) was 2 (67) n (%) and the “Best response: Stable disease” value ([1]; 50 mg (n = 3)) was 0 n (%). For the same molecule, the “Overall response rate: Complete response + partial response” value (from here on “Overall response rate”) ([1]; 50 mg (n = 3)) was 0 n (%), the “Best response: Complete response” value ([1]; 100 mg (n = 16)) was 0 n (%) and the “Best response: Missing” value ([1]; 100 mg (n = 16)) was 0 n (%). The “Best response: Not evaluable” value ([1]; 100 mg (n = 16)) was 0 n (%), the “Best response: Partial response” value ([1]; 100 mg (n = 16)) was 0 n (%) and the “Best response: Progressive disease” value ([1]; 100 mg (n = 16)) was 10 (63) n (%). The “Best response: Stable disease” value ([1]; 100 mg (n = 16)) was 6 (38) n (%), the “Overall response rate” value ([1]; 100 mg (n = 16)) was 0 n (%) and the “Best response: Complete response” value ([1]; 200 mg (n = 12)) was 0 n (%). The “Best response: Missing” value ([1]; 200 mg (n = 12)) was 3 (25) n (%), the “Best response: Not evaluable” value ([1]; 200 mg (n = 12)) was 0 n (%) and the “Best response: Partial response” value ([1]; 200 mg (n = 12)) was 0 n (%). The “Best response: Progressive disease” value ([1]; 200 mg (n = 12)) was 6 (50) n (%), the “Best response: Stable disease” value ([1]; 200 mg (n = 12)) was 3 (25) n (%) and the “Overall response rate” value ([1]; 200 mg (n = 12)) was 0 n (%). The “Patients with stable disease among patients with MTAP gene deletion” value ([1]; 6 patients with MTAP gene deletion) was 2, the “Patients with progressive disease among patients with MTAP gene deletion” value ([1]; 6 patients with MTAP gene deletion, treatment exposure 15 days to 37 days) was 4 and the “Best response: Complete response” value ([1]; Total (N = 31)) was 0 n (%). For the same molecule, the “Best response: Missing” value ([1]; Total (N = 31)) was 3 (10) n (%), the “Best response: Not evaluable” value ([1]; Total (N = 31)) was 1 (3) n (%) and the “Best response: Partial response” value ([1]; Total (N = 31)) was 0 n (%). The “Best response: Progressive disease” value ([1]; Total (N = 31)) was 18 (58) n (%), the “Best response: Stable disease” value ([1]; Total (N = 31)) was 9 (29) n (%) and the “Disease stability, patients” value ([1]; all dose groups) was 29%. For the same molecule, the “TEEs reported in preclinical models” value [2] was “no TEEs”, the “Time of maximal decreases in global ADMA levels” value (global ADMA levels) was 72 h and the “Target engagement in tumor biopsies” value [3] was “modest and variable”. For the same molecule, the “Mean reduction of ADMA-hnRNP-A1 in tumor biopsies by LC-MS (SE 9.6)” value ([3]; in 4/6 patients) was 18.5%, the “Reduction of ADMA-R225-hnRNP-A1 in PBMCs, mean (SE 5.81%)” value ([4]; 100 mg, day 15) was 43.1% and the “Reduction of ADMA-R225-hnRNP-A1 in PBMCs, mean (SE 6.92%)” value ([4]; 200-mg dose group, day 15) was 54.7%. For the same molecule, the “Target engagement in the blood” value ([4]; in vivo) was “observed”, the “Cell lines with cytotoxic responses” value [5] was 50% and the “Increase in cfMMA, mean (SE 11.9%)” value ([6]; 100 mg) was 24.8%. The “Increase in cfSDMA, mean (SE 8.65%)” value ([6]; 100 mg) was 30.2%, the “Reduction in circulating free ADMA, mean (SE 1.98%)” value ([6]; 100 mg) was 22.5% and the “Increase in cfMMA, mean (SE 18.7%)” value ([6]; 200 mg) was 43.8%. For the same molecule, the “Increase in cfSDMA, mean (SE 23.8%)” value ([6]; 200 mg) was 39.8%, the “Reduction in circulating free ADMA, mean (SE 7.7%)” value ([6]; 200-mg dose group) was 29.1% and the “Patients with increased protein SDMA in formalin-fixed paired biopsies” value (protein SDMA; 7/8 patients) was 88%. The “Median increase of protein SDMA in formalin-fixed paired biopsies” value (protein SDMA; range −28 to 155%) was 48.9% and the “Mean reduction of ADMA-hnRNP-A1 in tumor biopsies by IHC (SE 9.36)” value [7] was 2.08%.
